We go through 1 compound from patent US20150258197A1, “EUTECTIC ISOMETHEPTENE MUCATE” (TONIX PHARMA HOLDINGS LIMITED, priority 2014, published 2015).

The structures appear in SMILES notation.

One data set concerns mice. As to the kind of experiment: Tail-flick Test. Conditions: mouse. The format is in vivo. From the text:
Common mouse models for pain include the Formalin Test (Wheeler-Aceto, et al., Psychopharmacology, 104, 35-44, 1991), the Hot Plate Test (Eddy and Leimbach, J. Pharmacol. Exp. Ther., 107, 385-393, 1953), and the Tail-flick Test (D'Amour and Smith, J. Pharmacol. Exp. Ther., 1, 74-79, 1941). These methods detect analgesic activity of compositions of interest. In the Formalin Test, mice are given an intraplantar injection of 5% formalin into one posterior hindpaw to induce paw licking. Test compositions are given to the mice before treatment with formalin and the mice are evaluated and compared to a control group. In the Hot Plate Test, mice are placed onto a hot metal plate maintained at 54° C. and the latency to the first foot-lick is measured. As with the Formalin test, compositions of interest are given to the mice before the test and the mice are evaluated and compared to a control group. In the Tail-flick Test, a mouse's tail is heated by means of a thermal light source, and the latency before the animal withdraws its tail is measured. Test compositions are administered before the test, and compared with a vehicle control group. The analgesic activity of the compositions described herein can be identified using the mouse formalin, hot plate, and tail-flick tests.
A method for detecting analgesic activity followed that described by D'Amour and Smith (J. Pharmacol. Exp. Ther., 1, 74-79, 1941). The mouse's tail was heated by means of a thermal light source (20 volts). The latency before the animal withdraws its tail was measured (maximum: 15 seconds).
Ten mice were studied per group. The test was performed partially blind.
The test substances selected from (R)-isometheptene mucate, and (S)-isometheptene mucate were evaluated at three doses ([…]), administered p.o. 15 minutes before the test, and compared with a vehicle control group. […]
Data with the test substance were analyzed by comparing treated groups with vehicle control using ANOVA followed by post-hoc Dunnett's tests. Data with the reference substance were analyzed using unpaired Student's t tests.
Background: Thermal pain tests record how soon the animal reacts.

Data set [1] in a line: DSC/XRPD of binary mixtures of isometheptene mucate and mannitol (eutectic formation). The format is physicochemical. Conditions: binary mixtures at different ratios. On the procedure:
Because mannitol is a common excipient in solid drug formulations, it was examined for compatibility with racemic isometheptene mucate and investigated using DSC and the interactions occurring were assessed. […] To confirm the formation of a eutectic and to characterize its physical properties, several binary mixtures at different ratios of racemic isometheptene mucate and excipient were prepared and analyzed by DSC and by XRPD. The eutectic formation improved the cohesion between the racemic isometheptene mucate and excipient particles and assured better physical linking between the two.
In order to confirm the eutectic formation and to characterize its physical properties, several binary mixtures at different ratios of racemic isometheptene mucate-excipient were prepared and analyzed by DSC and by X-ray powder diffraction (XRPD). […] For each DSC heating curve, the onset temperature and the enthalpy were evaluated both for the eutectic contribute and for the excess of component. The recorded values were plotted and a phase diagram between the two components was obtained with a characteristic profile of phase diagrams of eutectic mixtures. […]
Aliquots of racemic isometheptene mucate API and mannitol were weighed in the ratios described below and ground in an agate mortar, and the homogeneous mixtures subsequently analyzed. […]

Take `CN[C@H](C)CCC=C(C)C` [(R)-isometheptene mucate]: the “Tail-flick activity relative to morphine” value in the data set on mice (100 mg/kg p.o. versus morphine 32 mg/kg) is on record as “activity similar to that of morphine”. Further, in the data set on mice (thermal light source, three doses (10, 30, 100) p.o. 15 minutes before the test), the “Tail flick latency compared to vehicle” value is listed as “longer tail flick latency times”. Also, the “Interaction with mannitol (eutectic vs adduct)” value in data set [1] is on record as “only a physical eutectic formation”.
